Values after ≈ are worked out from the molar mass of the structure shown. Each block holds one compound with its values, some of them ahead of it. Square brackets hold non-standard residues; d marks the D form. Peptide text beside a SMILES is read from it. ξ: configuration not given here. ξαMeGly(pent-4-enyl) = C=CCCCC(C)(N)C(=O)O
What was measured:
E. coli ATCC 25922 = assay type: cell-based; details: ATCC 25922, 18 h
Procedure: (§1) The minimum inhibitory concentration (MIC) of the Feleucin-K3 analogs was tested by the broth microdilution method. Sensitive bacteria and drug-resistant bacteria were diluted to 1 × 10^6 CFU/mL, according to the McFarland standards. Bacterial suspension and peptide solutions (8–128 μg/mL) were incubated at 37 °C for 18 h. The minimum concentration without obvious bacterial growth was the MIC of the peptides. The stability of the analogs in a physiological salt environment was also investigated. In brief, salt powder (450-mM NaCl) was dissolved in deionized water, and the following investigational steps were the same as those described before. The above steps were repeated several times, until the same value was obtained three times.

S. aureus ATCC 25923 = assay type: cell-based, Staphylococcus aureus; details: ATCC 25923, 18 h
Procedure: as §1

P. aeruginosa ATCC 27853 = assay type: cell-based, Pseudomonas aeruginosa; details: ATCC 27853, 18 h
Procedure: as §1

A. baumannii ATCC 19606 = assay type: cell-based, Acinetobacter baumannii; details: ATCC 19606, 18 h
Procedure: as §1

MRSA 113 = assay type: cell-based, Staphylococcus aureus; details: 113, 18 h
Procedure: as §1

MRSA 23 = assay type: cell-based, Staphylococcus aureus; details: 23, 18 h
Procedure: as §1

MRSA 48 = assay type: cell-based, Staphylococcus aureus; details: 48, 18 h
Procedure: as §1

MRSA 51 = assay type: cell-based, Staphylococcus aureus; details: 51, 18 h
Procedure: as §1

MRSA 52 = assay type: cell-based, Staphylococcus aureus; details: 52, 18 h
Procedure: as §1

MRSA 54 = assay type: cell-based, Staphylococcus aureus; details: 54, 18 h
Procedure: as §1

MRSA 71 = assay type: cell-based, Staphylococcus aureus; details: 71, 18 h
Procedure: as §1

MRSA 74 = assay type: cell-based, Staphylococcus aureus; details: 74, 18 h
Procedure: as §1

MRSA 75 = assay type: cell-based, Staphylococcus aureus; details: 75, 18 h
Procedure: as §1

MRSA 936 = assay type: cell-based, Staphylococcus aureus; details: 936, 18 h
Procedure: as §1

MRSA ATCC 33591 = assay type: cell-based, Staphylococcus aureus; details: ATCC 33591, 18 h
Procedure: as §1

S. aureus 725 = assay type: cell-based, Staphylococcus aureus; details: 725, 18 h
Procedure: as §1

S. aureus 794 = assay type: cell-based, Staphylococcus aureus; details: 794, 18 h
Procedure: as §1

A. baumannii 51243 = assay type: cell-based, Acinetobacter baumannii; details: 51243, 18 h
Procedure: as §1

A. baumannii 5444 = assay type: cell-based, Acinetobacter baumannii; details: 5444, 18 h
Procedure: as §1

A. baumannii 822144 = assay type: cell-based, Acinetobacter baumannii; details: 822144, 18 h
Procedure: as §1

A. baumannii 8309 = assay type: cell-based, Acinetobacter baumannii; details: 8309, 18 h
Procedure: as §1

A. baumannii 91105 = assay type: cell-based, Acinetobacter baumannii; details: 91105, 18 h
Procedure: as §1

A. baumannii 91152 = assay type: cell-based, Acinetobacter baumannii; details: 91152, 18 h
Procedure: as §1

A. baumannii 91199 = assay type: cell-based, Acinetobacter baumannii; details: 91199, 18 h
Procedure: as §1

A. baumannii 91810 = assay type: cell-based, Acinetobacter baumannii; details: 91810, 18 h
Procedure: as §1

A. baumannii 91869 = assay type: cell-based, Acinetobacter baumannii; details: 91869, 18 h
Procedure: as §1

A. baumannii 91944 = assay type: cell-based, Acinetobacter baumannii; details: 91944, 18 h
Procedure: as §1

A. baumannii 9234 = assay type: cell-based, Acinetobacter baumannii; details: 9234, 18 h
Procedure: as §1

A. baumannii 92359 = assay type: cell-based, Acinetobacter baumannii; details: 92359, 18 h
Procedure: as §1

A. baumannii 9236 = assay type: cell-based, Acinetobacter baumannii; details: 9236, 18 h
Procedure: as §1

A. baumannii 9331 = assay type: cell-based, Acinetobacter baumannii; details: 9331, 18 h
Procedure: as §1

A. baumannii 9336 = assay type: cell-based, Acinetobacter baumannii; details: 9336, 18 h
Procedure: as §1

A. baumannii 97830 = assay type: cell-based, Acinetobacter baumannii; details: 97830, 18 h
Procedure: as §1

A. baumannii 98110 = assay type: cell-based, Acinetobacter baumannii; details: 98110, 18 h
Procedure: as §1

A. baumannii 9828 = assay type: cell-based, Acinetobacter baumannii; details: 9828, 18 h
Procedure: as §1

A. baumannii 9840 = assay type: cell-based, Acinetobacter baumannii; details: 9840, 18 h
Procedure: as §1

A. baumannii 9896 = assay type: cell-based, Acinetobacter baumannii; details: 9896, 18 h
Procedure: as §1

- MIC, E. coli ATCC 25922 (E. coli ATCC 25922): 16 µg/mL (≈ 16.1 µM)
- MIC, S. aureus ATCC 25923 (S. aureus ATCC 25923): 16 µg/mL (≈ 16.1 µM)
- MIC, P. aeruginosa ATCC 27853 (P. aeruginosa ATCC 27853): 4 µg/mL (≈ 4.03 µM)
- MIC, A. baumannii ATCC 19606 (A. baumannii ATCC 19606): 64 µg/mL (≈ 64.4 µM)
SMILES: C=CCCCC(C)(NC(=O)[C@H](CCCCN)NC(=O)[C@@H](N)CC(C)C)C(=O)N[C@@H](CC(C)C)C(=O)N[C@@H](CCCCN)C(=O)N[C@@H](CCCCN)C(=O)N[C@@H](CC(C)C)C(=O)N[C@@H](CC(C)C)C(N)=O (stereo partly drawn) [Feleucin-K64] (H-LK[ξαMeGly(pent-4-enyl)]LKKLL-NH2)

- MIC, E. coli ATCC 25922 (E. coli ATCC 25922): >128 µg/mL
- MIC, S. aureus ATCC 25923 (S. aureus ATCC 25923): >128 µg/mL
- MIC, P. aeruginosa ATCC 27853 (P. aeruginosa ATCC 27853): >128 µg/mL
- MIC, A. baumannii ATCC 19606 (A. baumannii ATCC 19606): >128 µg/mL
SMILES: C=CCCCC(C)(N)C(=O)N[C@@H](CC(C)C)C(=O)N[C@@H](CCCCN)C(=O)N[C@@H](C)C(=O)N[C@@H](CCCCN)C(=O)N[C@@H](CCCCN)C(=O)N[C@@H](CC(C)C)C(=O)N[C@@H](CC(C)C)C(N)=O (stereo partly drawn) [Feleucin-K66] (H-[ξαMeGly(pent-4-enyl)]LKAKKLL-NH2)

- MIC, E. coli ATCC 25922 (E. coli ATCC 25922): 8 µg/mL (≈ 7.01 µM)
- MIC, MRSA 113 (MRSA 113): 4 µg/mL (≈ 3.51 µM)
- MIC, MRSA 23 (MRSA 23): 4 µg/mL (≈ 3.51 µM)
- MIC, MRSA 48 (MRSA 48): 4 µg/mL (≈ 3.51 µM)
- MIC, MRSA 51 (MRSA 51): 4 µg/mL (≈ 3.51 µM)
- MIC, MRSA 52 (MRSA 52): 4 µg/mL (≈ 3.51 µM)
- MIC, MRSA 54 (MRSA 54): 4 µg/mL (≈ 3.51 µM)
- MIC, MRSA 71 (MRSA 71): 4 µg/mL (≈ 3.51 µM)
- MIC, MRSA 74 (MRSA 74): 4 µg/mL (≈ 3.51 µM)
- MIC, MRSA 75 (MRSA 75): 4 µg/mL (≈ 3.51 µM)
- MIC, MRSA 936 (MRSA 936): 4 µg/mL (≈ 3.51 µM)
- MIC, MRSA ATCC 33591 (MRSA ATCC 33591): 4 µg/mL (≈ 3.51 µM)
- MIC, S. aureus 725 (S. aureus 725): 4 µg/mL (≈ 3.51 µM)
- MIC, S. aureus 794 (S. aureus 794): 8 µg/mL (≈ 7.01 µM)
- MIC, S. aureus ATCC 25923 (S. aureus ATCC 25923): 4 µg/mL (≈ 3.51 µM)
- MIC, P. aeruginosa ATCC 27853 (P. aeruginosa ATCC 27853): 8 µg/mL (≈ 7.01 µM)
- MIC, A. baumannii 51243 (A. baumannii 51243): 4 µg/mL (≈ 3.51 µM)
- MIC, A. baumannii 5444 (A. baumannii 5444): 4 µg/mL (≈ 3.51 µM)
- MIC, A. baumannii 822144 (A. baumannii 822144): 4 µg/mL (≈ 3.51 µM)
- MIC, A. baumannii 8309 (A. baumannii 8309): 4 µg/mL (≈ 3.51 µM)
- MIC, A. baumannii 91105 (A. baumannii 91105): 4 µg/mL (≈ 3.51 µM)
- MIC, A. baumannii 91152 (A. baumannii 91152): 4 µg/mL (≈ 3.51 µM)
- MIC, A. baumannii 91199 (A. baumannii 91199): 4 µg/mL (≈ 3.51 µM)
- MIC, A. baumannii 91810 (A. baumannii 91810): 4 µg/mL (≈ 3.51 µM)
- MIC, A. baumannii 91869 (A. baumannii 91869): 4 µg/mL (≈ 3.51 µM)
- MIC, A. baumannii 91944 (A. baumannii 91944): 4 µg/mL (≈ 3.51 µM)
- MIC, A. baumannii 9234 (A. baumannii 9234): 4 µg/mL (≈ 3.51 µM)
- MIC, A. baumannii 92359 (A. baumannii 92359): 4 µg/mL (≈ 3.51 µM)
- MIC, A. baumannii 9236 (A. baumannii 9236): 4 µg/mL (≈ 3.51 µM)
- MIC, A. baumannii 9331 (A. baumannii 9331): 8 µg/mL (≈ 7.01 µM)
- MIC, A. baumannii 9336 (A. baumannii 9336): 4 µg/mL (≈ 3.51 µM)
- MIC, A. baumannii 97830 (A. baumannii 97830): 4 µg/mL (≈ 3.51 µM)
- MIC, A. baumannii 98110 (A. baumannii 98110): 4 µg/mL (≈ 3.51 µM)
- MIC, A. baumannii 9828 (A. baumannii 9828): 4 µg/mL (≈ 3.51 µM)
- MIC, A. baumannii 9840 (A. baumannii 9840): 4 µg/mL (≈ 3.51 µM)
- MIC, A. baumannii 9896 (A. baumannii 9896): 4 µg/mL (≈ 3.51 µM)
- MIC, A. baumannii ATCC 19606 (A. baumannii ATCC 19606): 4 µg/mL (≈ 3.51 µM)
SMILES: C=CCCCC(C)(NC(=O)[C@@H](N)Cc1ccccc1)C(=O)N[C@@H](CCCCN)C(=O)N[C@@H](CC(C)C)C(=O)N[C@@H](CC(C)C)C(=O)N[C@@H](CCCCN)C(=O)N[C@@H](CCCCN)C(=O)N[C@@H](CC(C)C)C(=O)N[C@@H](CC(C)C)C(N)=O (stereo partly drawn) [Feleucin-K67] (H-F[ξαMeGly(pent-4-enyl)]KLLKKLL-NH2)

— article PMC8160793, “Potent Antimicrobial and Antibiofilm Activities of Feleucin-K3 Analogs Modified by α-(4-Pentenyl)-Ala against Multidrug-Resistant Bacteria” (Biomolecules, 2021)
